Results from paper PMC6190829 (Journal of medicinal chemistry, 2018).
“And” between values parts separate entries of the source, which are not always exact repeats. Identical values can stand only once. “Also recorded” adds a separate entry of the source.

Experiments:
HaCaT cells [1] = assay: Immunoblot of NRF2, NQO1, GCLM protein levels; assay type: cell-based, human; conditions: 10 μM
[2] = Kinetic aqueous solubility in buffer pH 7.4; assay type: physicochemical
[3] = Microsomal stability, mouse liver microsomes; assay type: in vitro ADME; conditions: 1 μM, 20 min, NADPH
[4] = system: Salmonella typhimurium (TA98, TA100, TA1535, TA1537) and Escherichia coli (WP2 uvrA (pKM101)); assay: Mini-Ames assay, cytotoxicity and overall judgement over all strains; conditions: for Cytotoxicity in Mini-Ames assay: 1.5-1000 μg/well, any dose level; for Mutagenicity judgement: Mini-Ames, with and without S9
Solubility in DMSO = assay type: physicochemical
[5] = system: Salmonella typhimurium (TA98, TA100, TA1535, TA1537); assay: Mini-Ames assay, revertant colonies per strain; conditions: for Dose response of revertant increase: 6a: TA98 and TA100
HaCaT cells [6] = assay: NRF2 target gene mRNA expression; assay type: cell-based, human; conditions: 10 μM
HaCaT cells [7] = assay: Nuclear accumulation of NRF2; assay type: cell-based, human; conditions: 10 μM, 6 and 24 hours, vs DMSO control
Kelch domain of KEAP1 [8] = target: T1, Kelch domain of KEAP1 (Homo sapiens, UniProt Q14145); assay: Surface plasmon resonance assay
T1 sequence (Q14145 321-609 limits assumed): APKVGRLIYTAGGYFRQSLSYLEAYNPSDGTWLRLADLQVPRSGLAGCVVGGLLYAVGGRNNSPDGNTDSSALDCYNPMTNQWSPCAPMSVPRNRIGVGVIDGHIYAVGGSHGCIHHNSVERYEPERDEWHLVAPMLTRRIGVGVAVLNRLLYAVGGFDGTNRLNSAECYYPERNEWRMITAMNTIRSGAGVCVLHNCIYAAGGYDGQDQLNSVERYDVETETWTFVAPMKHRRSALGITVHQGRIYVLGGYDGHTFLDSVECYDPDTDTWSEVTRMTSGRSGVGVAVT

Kelch domain of KEAP1 [9] = target: T1, Kelch domain of KEAP1; assay: Fluorescence anisotropy; conditions: IC50 (nM) (95% CI), fluorescent NRF2 peptide / KEAP1 Kelch domain
[10] = cited from earlier work
[11] = with S9 mix, higher dose levels, vs vehicle control

For `CC1(C)CC[C@]2(C(=O)n3ccnc3)CC[C@]3(C)[C@H](C(=O)C=C4[C@@]5(C)C=C(C#N)C(=O)C(C)(C)[C@@H]5CC[C@]43C)[C@@H]2C1` [CDDO-Im, reference compound], the GCLM protein level (HaCaT cells [1]; 24 h, vs vehicle) was “significantly higher”, the NQO1 protein level (HaCaT cells [1]; 24 h, vs vehicle) was “higher” and the NRF2 protein level (HaCaT cells [1]; 24 h, vs vehicle) was “higher”.
In the case of `COc1ccc(S(=O)(=O)Nc2ccc(NS(=O)(=O)c3ccc(OC)cc3)c3ccccc23)cc1` [Compound 5], the “Aqueous solubility” value [2] is reported as “modest aqueous solubilities”.
In the case of `COc1ccc(S(=O)(=O)N(CC(=O)O)c2ccc(N(CC(=O)O)S(=O)(=O)c3ccc(OC)cc3)c3ccccc23)cc1` [Compound 6a], the “Compound remaining after incubation, mouse liver microsomes” value [3] is reported as “stable”, the “Cytotoxicity in Mini-Ames assay” value [4] is reported as “No cytotoxicity” and the Mutagenicity judgement [4] is reported as “positive for mutagenicity”. For the same compound, the solubility (Solubility in DMSO) was no more than 50 mg/mL, the “Dose response of revertant increase” value [5] was “Dose response was also observed” and the “Increase in revertants, TA100” value [5, 11] was greater than 2 fold. The “Increase in revertants, TA1535” value [5, 11] was greater than 3 fold.
With `COc1ccc(S(=O)(=O)N(CC(N)=O)c2ccc(N(CC(N)=O)S(=O)(=O)c3ccc(OC)cc3)c3ccccc23)cc1` [Compound 6b] the “Aqueous solubility” value [2] was “poor solubility”, the NQO1 protein level (HaCaT cells [1]; 6 h, vs DMSO) was “modest increase” and the NRF2 protein level (HaCaT cells [1]; 6 h, vs DMSO) was “modest increase”. For the same compound, the GCLM protein level (HaCaT cells [1]; 24 h, vs vehicle) was “significantly higher”, the NQO1 protein level (HaCaT cells [1]; 24 h, vs vehicle) was “Increased” and the NRF2 protein level (HaCaT cells [1]; 24 h, vs vehicle) was “Increased”.
For `COc1ccc(S(=O)(=O)N(CC(=O)O)c2cnc(N(CC(=O)O)S(=O)(=O)c3ccc(OC)cc3)c3ccccc23)cc1` [Compound 17, 2,2’-(isoquinoline-1,4-diylbis(((4-methoxyphenyl)sulfonyl)azanediyl))diacetic acid], the GCLM protein level (HaCaT cells [1]; 24 h, vs vehicle) was “significantly higher”, the NQO1 protein level (HaCaT cells [1]; 24 h, vs vehicle) was “Increased” and the NRF2 protein level (HaCaT cells [1]; 24 h, vs vehicle) was “Increased”. The “SOD mRNA expression (not an NRF2 target gene)” value (HaCaT cells [6]) was “neither isoquinoline 17 nor quinoline 23 produced a significant increase”, the “GCLC mRNA expression” value (HaCaT cells [6]; 6 hours) was “significant increase” and the “GCLM mRNA expression” value (HaCaT cells [6]; 6 hours) was “significant increase”. The “HMOX1 mRNA expression” value (HaCaT cells [6]; 6 hours) was “significant increase”, the “NQO1 mRNA expression” value (HaCaT cells [6]; 24 hours) was “increase” and the “Cytotoxicity in Mini-Ames assay” value [4] was “No cytotoxicity”. The Mutagenicity judgement [4] was “better mutagenic profile than naphthalene 6a” and the “Dose response of revertant increase” value [5] was “No dose response was observed”.
For `COc1ccc(S(=O)(=O)N(CC(=O)O)c2ccc(N(CC(=O)O)S(=O)(=O)c3ccc(OC)cc3)c3ncccc23)cc1` [Compound 23], the NQO1 protein level (HaCaT cells [1]; 6 h, vs DMSO) was “modest increase”, the NRF2 protein level (HaCaT cells [1]; 6 h, vs DMSO) was “modest increase” and the GCLM protein level (HaCaT cells [1]; 24 h, vs vehicle) was “modestly increased”. The NQO1 protein level (HaCaT cells [1]; 24 h, vs vehicle) was “no effect”, the NRF2 protein level (HaCaT cells [1]; 24 h, vs vehicle) was “no effect” and the “SOD mRNA expression (not an NRF2 target gene)” value (HaCaT cells [6]) was “neither isoquinoline 17 nor quinoline 23 produced a significant increase”. For the same compound, the “GCLC mRNA expression” value (HaCaT cells [6]; 6 and 24 hours) was “small increase”, the “GCLM mRNA expression” value (HaCaT cells [6]; 6 and 24 hours) was “small increase” and the “HMOX1 mRNA expression” value (HaCaT cells [6]; 6 and 24 hours) was “no increase”. For the same compound, the “NQO1 mRNA expression” value (HaCaT cells [6]; 6 and 24 hours) was “small increase” and the “NRF2 accumulation in the nucleus” value (HaCaT cells [7]) was “small significant increase; also recorded: modest increase”.
In the case of `COc1ccc(S(=O)(=O)N(CC(=O)O)c2ccc(N(CC(=O)O)S(=O)(=O)c3ccc(OC)cc3)c3[nH]ccc23)cc1` [Compound 29, 2,2’-((1H-indole-4,7-diyl)bis(((4-methoxyphenyl)sulfonyl)azanediyl))diacetic acid], the “Stability of the compound” value (Compound stability) is reported as “unstable”.
With `COc1ccc(S(=O)(=O)Nc2nnc(N(CC(=O)O)S(=O)(=O)c3ccc(OC)cc3)c3ccccc23)cc1` [Compound 34, N-(4-((4-methoxyphenyl)sulfonamido)phthalazin-1-yl)-N-((4-methoxyphenyl)sulfonyl)glycine] the Kd (Kelch domain of KEAP1 [8]) was greater than 10000 nM, the IC50 (Kelch domain of KEAP1 [9]) was 1000 nM and 1100 nM and the NQO1 protein level (HaCaT cells [1]; 6 h, vs DMSO) was “no increase”. The NRF2 protein level (HaCaT cells [1]; 6 h, vs DMSO) was “no increase” and the “Compound remaining after incubation, mouse liver microsomes” value [3] was “comparable to the other compounds”.
Work on `COc1ccc(S(=O)(=O)N(CC(=O)O)c2cc(-c3ccccc3)cc(N(CC(=O)O)S(=O)(=O)c3ccc(OC)cc3)c2)cc1` [Compound 46, 2,2’-(1,1’-biphenyl]-3,5-diylbis(((4-methoxyphenyl)sulfonyl)azanediyl) diacetic acid] yielded an IC50 (Kelch domain of KEAP1 [9]) greater than 25000 nM.
In the case of `Cc1cc(C)c(C)c(S(=O)(=O)Nc2ccc(N3CC[C@H](C(=O)O)C3)c3ccccc23)c1C` [RA-839], the In vivo activity ([10]; ref Winkel et al.[31]) is given as “active in vivo only if Phase 1 metabolism were inhibited” and the In vivo metabolism ([10]; ref [31]) is given as “metabolized quickly in vivo”.
